Experimental data: US5833994A, “Use of the AH receptor and AH receptor ligands to treat or prevent cytopathicity of viral infection” (Paracelsian, Inc., priority 1997, dated 1998)
“Also recorded” adds a separate entry of the source. Like-named read-outs stand apart in the source and are kept apart here.

Assays:
[1] = tested on: HIV envelope gp120/41-induced syncytia formation in CD4+T cell lines (HIVenv 2-8 co-culture); assay: Inhibition of HIVenv 2-8-induced syncytia formation / cell death (HIV-1 co-culture assay); type: cell-based; conditions: for Estimated IC50 (Syncitia Quantification), inhibition of HIV-induced cytopathicity: Table 1
Protocol: Sourcing of Ah Receptor Ligands: The Ah receptor ligands 2,3,7,8-Tetrachlorodibenzo-p-dioxin, 3,3',4,4',5-Pentachlorobiphenyl, 3,3',4,'4-Tetrachlorobiphenyl, and 2-Monochlorodibenzo-p-dioxin compounds were purchased from Accustandard (Cambridge, Mass.). α-naphthoflavone was purchased from Sigma (St. Louis, Mo.). Stock solutions of each compound were prepared by dissolution in DMSO at a 1000X concentration, i.e. the highest concentration tested was diluted by 1000-fold.
Bioassay Procedure: The cell lines utilized in the assay protocol include the following: HIVenv 2-2 (non-cytopathic), HIVenv 2-8 (cytopathic), Jurkat CD4+T cell line (clone E6-1), and SupT1. Cell lines were cultured in RPMI medium (Gibco, Grand Island, N.Y.) supplemented with L-glutamine (Sigma, St. Louis, Mo.) and 10% FBS-HI (Intergen). The Jurkat CD4+T cell line was obtained from American Type Culture Collection (Bethesda, Md.). All other cell lines were obtained from the National Institutes of Health. The HIVenv 2-2 or HIVenv 2-8 cells were plated with both CD4+T cell lines (1×10^3 cells per cell line in 16 μL of media.) in a 96-well tissue culture plate containing 50 μL of media with compound to be tested yielding a final volume of approximately 100 μL. The plates were then gently shaken to ensure adequate mixing of the assay components. Cells were then co-cultured at 5% CO2, 37C., and 95% humidity for 24 to 48 hours. The time points were chosen for the convenience, cytopathic changes become evident in the cell cultures used within a 2 to 4 hour period, becoming more and more prominent with time.
Data Reduction for this ELISA: HIVenv 2-2 co-culture ELISA values are used as the background for HIVenv 2-8 co-culture values. Dose responses are then plotted with dose along the x-axis and the background corrected optical density values on the y-axis.
Positive and Negative Controls: The use of the HIVenv 2-2 cell line serves as a negative control for induction of cytopathicity.
Interpretation of the Test: A positive response was defined as a dose-related decrease in syncytia formation in excess of 50% compared to HIVenv 2-8 co-cultures alone. Calculation of median effective doses was estimated by visual observation and by quantification of syncitia in 10X power microscope fields.
The Materials and Methods used in the testing of the various dibenzofuran compounds were the same as those used in Example 1 above. This includes the use of the same controls, cell lines, and assay procedures.
Interpretation of the Test: A positive response was defined as a dose-related decrease in syncytia formation in excess of 50% compared to HIVenv 2-8 co-cultures alone. Calculation of median effective doses was estimated by visual observation and by quantification of syncitia in 10X power microscope fields. Another procedure which provides data similar to the Bioassay procedure just described allows for quantification of changes in the co-culture cells through an ELISA method, not as reliant on visual observation. […]

[2] = molecular target: T1, Ah receptor (Cavia porcellus, UniProt Q6J287); assay: Ah receptor transformation, agonist test (Ah-immunoassay, absence of TCDD); type: biochemical, Guinea pig; conditions: absence of TCDD
T1 sequence (Q6J287 1-846): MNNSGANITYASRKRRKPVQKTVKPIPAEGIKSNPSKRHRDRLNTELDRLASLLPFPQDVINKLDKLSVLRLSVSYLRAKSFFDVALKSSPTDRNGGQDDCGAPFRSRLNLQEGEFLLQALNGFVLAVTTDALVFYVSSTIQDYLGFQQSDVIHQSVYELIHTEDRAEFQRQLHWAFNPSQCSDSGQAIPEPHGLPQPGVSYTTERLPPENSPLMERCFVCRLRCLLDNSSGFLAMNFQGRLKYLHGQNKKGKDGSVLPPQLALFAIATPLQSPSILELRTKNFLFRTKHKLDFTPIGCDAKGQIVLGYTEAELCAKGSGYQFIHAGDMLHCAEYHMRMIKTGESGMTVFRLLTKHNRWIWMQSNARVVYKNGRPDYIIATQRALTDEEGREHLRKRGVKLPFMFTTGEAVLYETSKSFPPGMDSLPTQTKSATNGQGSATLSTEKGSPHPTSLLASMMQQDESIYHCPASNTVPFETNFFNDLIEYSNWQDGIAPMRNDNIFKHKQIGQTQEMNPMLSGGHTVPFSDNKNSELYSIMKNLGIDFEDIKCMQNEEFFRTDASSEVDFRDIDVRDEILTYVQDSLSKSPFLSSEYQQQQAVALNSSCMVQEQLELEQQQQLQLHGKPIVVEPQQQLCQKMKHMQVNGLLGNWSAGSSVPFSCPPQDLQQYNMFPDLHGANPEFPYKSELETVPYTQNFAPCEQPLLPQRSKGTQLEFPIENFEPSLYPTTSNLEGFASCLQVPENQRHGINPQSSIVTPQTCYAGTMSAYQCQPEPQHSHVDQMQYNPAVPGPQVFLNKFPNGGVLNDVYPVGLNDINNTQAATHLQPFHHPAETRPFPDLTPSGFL
Protocol: Cytosol was prepared as described above.
Diluent for TCDD dose response, diluent for extracts (detection of agonists), and negative control: The cytosol is treated with 1 μL DMSO per 1 mL cytosol (-).
1 nM TCDD treated, positive control. […] DMSO diluent for detection of agonists: the cytosol is treated with μL DMSO per 1 mL cytosol. (1 nm final concentration of TCDD).

[3] = molecular target: T1, Ah receptor; assay: Inhibition of Ah receptor transformation, antagonist test (Ah-immunoassay, 0.5 nM TCDD); conditions: for Test as antagonist, Milli O.D at 405: 0.5 nM TCDD; for binding or interaction with the Ah receptor (words): with and without 0.5 nM TCDD
Protocol: Cytosol was prepared as described in methods and treated with TCDD, DMSO or TCM extract to make 1) 0.5 nM TCDD, 2) 0.1% DMSO, or 3) 500 μg/mL TCM extract, respectively. The treated cytosol was serially diluted in a neutravidin-coated ELISA plate (Pierce, Rockford, Ill.). […] To treat for Ah receptor agonist activity, extracts were diluted in 0.5 nM TCDD treated cytosol to 250, 125, and 62.5 μg/mL of TCM extracts.
Ten mL aliquots of cytosol were thawed and pooled, generally 20 mL per ELISA plate. For each 20 mL of cytosol, 10 μL of thawed DRE stock and 1 mL HEDG in 4M NaCl were added.
0.5 nM TCDD Diluent for extracts (detection of antagonists): The cytosol is treated with 1 μl of 1 μM TCDD per 2 mL cytosol (0.5 nm).
500 μg/mL extracts (detection of antagonists): 1 μL of test extract (500 mg/mL in DMSO) in 1 mL 0.5 nM TCDD-treated cytosol (500 μg/mL final concentration of extract in cytosol).
Serial dilution's of the extracts and/or TCDD treated cytosol into DMSO-treated cytosol are done as required by the experiment and are described in the examples.
The ELISA plate containing the treated cytosol is incubated with gentle rocking for 2 hours at 30° C. to allow the transformation of Ah receptor, binding of Ah receptor with ARNT, and binding of the Ah receptor/ARNT complex to the biotinylated DRE, and binding of the biotinylated DRE to the neutravidin bound to the ELISA plate.
After 2 hours the plate is washed 3 times with 400 μL TBS plus 0.02% Tween 20 per well per wash and 200 μL of the working dilution of anti-ARNT added to all wells. The plate is again incubated with gentle rocking at 30° C. for 1 hour. After 1 hour the plate is washed as before and a working dilution (1:4000) of anti-rabbit/alkaline phosphatase conjugate is added to all wells. The plate is incubated for a further 1 hour at 30° C. with gentle rocking and then washed as before. PNPP stock is added to each well (200 μL) and the plate is incubated for 1 hour at 30° C., at which time it is read at 405 nm in an ELISA plate reader and the milli O.D.'s of the wells are recorded.
TCM extracts were tested for their ability to inhibit the transformation of the Ah receptor.

[4] = tested on: HIV; viruses; tumors; liver; conditions: cited from earlier work

Q: Which “Estimated IC50 (Syncitia Quantification), inhibition of HIV-induced cytopathicity” value [1] does the source give for CC(C)(C)c1cc(Cl)cc2c1oc1cc(Cl)cc(Cl)c12 [6-t-butyl,1,3,8-trichlorodibenzofuran] here?
A: The value was 1.5 µM.

Q: With Clc1cc2c(cc1Cl)Oc1c(Cl)c(Cl)c(Cl)c(Cl)c1O2 [1,2,3,4,7,8-HCDD] as the compound, how does the “Estimated IC50 (Syncitia Quantification), inhibition of HIV-induced cytopathicity” value [1] read?
A: The value was “No Inhibition Observed”.

Q: Which “inhibition of syncytia formation / cytopathicity” value [1] does the source give for CC(C)c1cc(Cl)cc2c1oc1cc(Cl)cc(Cl)c12 [6-isopropyl,1,3,8-trichlorodibenzofuran] here?
A: The value was “slightly less antagonistic activity”.

Q: What about the “Estimated IC50 (Syncitia Quantification), inhibition of HIV-induced cytopathicity” value [1] of the same compound?
A: The value was 0.1 µM.

Q: Which “Estimated IC50 (Syncitia Quantification), inhibition of HIV-induced cytopathicity” value [1] does the source give for CCCc1cc(Cl)cc2c1oc1cc(Cl)cc(Cl)c12 [6-propyl,1,3,8-trichlorodibenzofuran] here?
A: Its value is 0.5 µM.

Q: With Clc1ccc2c(c1)Oc1ccccc1O2 [Extract 2-MCDD, 2-Monochlorodibenzo-p-dioxin] as the compound, how does the “inhibition of syncytia formation / cytopathicity” value [1] read?
A: Its value is “incapable of blocking the cytopathic effect”.

Q: And the “Estimated IC50 (Syncitia Quantification), inhibition of HIV-induced cytopathicity” value [1]?
A: Its value is “No Inhibition Observed”.

Q: Which “inhibition of syncytia formation / cytopathicity” value [1] does the source give for Clc1ccc(-c2ccc(Cl)c(Cl)c2)cc1Cl [3,3',4,4'-TCB, 3,3',4,4'-tetrachlorobiphenyl] here?
A: The value was “correspondingly weaker activity”.

Q: And the “Estimated IC50 (Syncitia Quantification), inhibition of HIV-induced cytopathicity” value [1]?
A: The value was 0.035 µM.

Q: Which results are given for Cc1cc(Cl)cc2c1oc1cc(Cl)cc(Br)c12 [1-bromo,6-methyl,3,8-dichlorodibenzofuran]?
A: inhibition of syncytia formation / cytopathicity [1]: most effective compound and strongest Ah receptor antagonist; Estimated IC50 (Syncitia Quantification), inhibition of HIV-induced cytopathicity [1]: 0.1 µM

Q: For Cc1cc(Cl)cc2c1oc1cc(Cl)cc(Cl)c12 [6-methyl,1,3,8-trichlorodibenzofuran], which “Estimated IC50 (Syncitia Quantification), inhibition of HIV-induced cytopathicity” value [1] is on record?
A: The value was 0.2 µM.

Q: For CC1(C)CC[C@]2(C(=O)O)CC[C@]3(C)C(=CC[C@@H]4[C@@]5(C)CC[C@H](O)C(C)(C)[C@@H]5CC[C@]43C)[C@@H]2C1 [Oleanolic Acid], which “Test as agonist, Milli O.D at 405” value ([2]; Table 11, 0.313 μg/mL) is on record?
A: The value was 48 Milli O.D.

Q: What about the “Test as agonist, Milli O.D at 405” value ([2]; Table 11, 0.625 μg/mL) of the same compound?
A: Its value is 19.5 Milli O.D.

Q: And the “Test as agonist, Milli O.D at 405” value ([2]; Table 11, 1.25 μg/mL)?
A: The value was 49 Milli O.D.

Q: What about the “Test as agonist, Milli O.D at 405” value ([2]; Table 11, 2.5 μg/mL) of the same compound?
A: Its value is 49.5 Milli O.D.

Q: What about the “Test as agonist, Milli O.D at 405” value ([2]; Table 11, 5 μg/mL) of the same compound?
A: Its value is 49.5 Milli O.D.

Q: And the “Test as agonist, Milli O.D at 405” value ([2]; Table 11, 10 μg/mL)?
A: The value was 50 Milli O.D.

Q: And the “Test as antagonist, Milli O.D at 405” value ([3]; Table 11, 0.313 μg/mL)?
A: The value was 1493 Milli O.D.

Q: And the “Test as antagonist, Milli O.D at 405” value ([3]; Table 11, 0.625 μg/mL)?
A: Its value is 1444 Milli O.D.

Q: What about the “Test as antagonist, Milli O.D at 405” value ([3]; Table 11, 1.25 μg/mL) of the same compound?
A: Its value is 1438 Milli O.D.

Q: And the “Test as antagonist, Milli O.D at 405” value ([3]; Table 11, 2.5 μg/mL)?
A: The value was 1462 Milli O.D.

Q: What about the “Test as antagonist, Milli O.D at 405” value ([3]; Table 11, 5 μg/mL) of the same compound?
A: Its value is 1423 Milli O.D.

Q: What about the “Test as antagonist, Milli O.D at 405” value ([3]; Table 11, 10 μg/mL) of the same compound?
A: Its value is 1143 Milli O.D.

Q: And the “binding or interaction with the Ah receptor (words)” value [3]?
A: The value was “non-Ah receptor binding”.

Q: Which “Estimated IC50 (Syncitia Quantification), inhibition of HIV-induced cytopathicity” value [1] does the source give for Clc1cc2oc3cc(Cl)c(Cl)cc3c2cc1Cl [2,3,7,8-TCDF] here?
A: Its value is 0.08 µM.

Q: For CCc1cc(Cl)cc2c1oc1cc(Cl)cc(Cl)c12 [6-ethyl,1,3,8-trichlorodibenzofuran], which “Estimated IC50 (Syncitia Quantification), inhibition of HIV-induced cytopathicity” value [1] is on record?
A: Its value is 1 µM.

Q: Which results are given for Clc1ccc(-c2cc(Cl)c(Cl)c(Cl)c2)cc1Cl [3,3',4,4',5-PCB, 3,3',4,4',5-pentachlorobiphenyl]?
A: inhibition of syncytia formation / cytopathicity [1]: correspondingly weaker activity; Estimated IC50 (Syncitia Quantification), inhibition of HIV-induced cytopathicity [1]: 0.1 µM

Q: Which results are given for O=[N+]([O-])c1cc(Cl)cc2c1oc1cc(Cl)cc(Cl)c12 [6-nitro 1,3,8-trichlorodibenzofuran]?
A: inhibition of syncytia formation / cytopathicity [1]: slightly less antagonistic activity; Estimated IC50 (Syncitia Quantification), inhibition of HIV-induced cytopathicity [1]: 0.5 µM

Q: Which “Estimated IC50 (Syncitia Quantification), inhibition of HIV-induced cytopathicity” value [1] does the source give for CCCCc1cc(Cl)cc2c1oc1cc(Cl)cc(Cl)c12 [6-butyl,1,3,8-trichlorodibenzofuran] here?
A: The value was 1.5 µM.

Q: Which results are given for C=C1CC[C@@H]2[C@](C)(CO)[C@H](O)CC[C@@]2(C)[C@@H]1C/C=C1/C(=O)OC[C@H]1O [Andrographolide, andrographolide]?
A: pharmacological activity (words) [4]: anti-tumor activity; pharmacological activity (words) ([4]; listed as andrographolide): anti-HIV effects; also recorded: anti-viral, anti-neoplastic and hepatoprotective properties; Test as agonist, Milli O.D at 405 ([2]; Table 11, 0.313 μg/mL): 49.5 Milli O.D; Test as agonist, Milli O.D at 405 ([2]; Table 11, 0.625 μg/mL): 43 Milli O.D; Test as agonist, Milli O.D at 405 ([2]; Table 11, 1.25 μg/mL): 59.5 Milli O.D; Test as agonist, Milli O.D at 405 ([2]; Table 11, 2.5 μg/mL): 54.5 Milli O.D; Test as agonist, Milli O.D at 405 ([2]; Table 11, 5 μg/mL): 55 Milli O.D; Test as agonist, Milli O.D at 405 ([2]; Table 11, 10 μg/mL): 47 Milli O.D; Test as antagonist, Milli O.D at 405 ([3]; Table 11, 0.313 μg/mL): 1457 Milli O.D; Test as antagonist, Milli O.D at 405 ([3]; Table 11, 0.625 μg/mL): 1402 Milli O.D; Test as antagonist, Milli O.D at 405 ([3]; Table 11, 1.25 μg/mL): 1437 Milli O.D; Test as antagonist, Milli O.D at 405 ([3]; Table 11, 2.5 μg/mL): 1416 Milli O.D; Test as antagonist, Milli O.D at 405 ([3]; Table 11, 5 μg/mL): 1421 Milli O.D; Test as antagonist, Milli O.D at 405 ([3]; Table 11, 10 μg/mL): 1164 Milli O.D; binding or interaction with the Ah receptor (words) [3]: does not interact or inhibit the Ah receptor; binding or interaction with the Ah receptor (words) ([3]; listed as andrographolide): does not bind the Ah receptor; also recorded: non-Ah receptor binding

Q: Which “Estimated IC50 (Syncitia Quantification), inhibition of HIV-induced cytopathicity” value [1] does the source give for Clc1cc(Cl)c2c(c1)oc1c(C3CCCCC3)cc(Cl)cc12 [6-cyclohexyl,1,3,8-trichlorodibenzofuran] here?
A: The value was 0.5 µM.
